# Assays:
# [1] = test system: pancreatic cancer (Panc-1); assay: Antiproliferative assay, Panc-1; format: cell-based; conditions: Homo sapiens; Panc-1 pancreatic cancer cell line; read-out: Antiproliferative activity IC50 ± SEM (nM) Panc-1
# Protocol: (§1) 4.2.2. Assay for antiproliferative effect
# (§2) To explore the antiproliferative potential of compounds propidium iodide fluorescence assay was performed using different cell lines such as Panc-1 (pancreas cancer cell line), MCF-7 (breast cancer cell line), HT-29 (colon cancer cell line) and A-549 (epithelial cancer cell line), respectively. To calculate the total nuclear DNA, a fluorescent dye (propidium iodide, PI) is used which can attach to the DNA, thus offering a quick and precise technique. PI cannot pass through the cell membrane and its signal intensity can be considered as directly proportional to quantity of cellular DNA. Cells whose cell membranes are damaged or have changed permeability are counted as dead ones. The assay was performed by seeding the cells of different cell lines at a density of 3000-7500 cells/well (in 200μl medium) in culture plates followed by incubation for 24h at 37 °C in humidified 5%CO2/95% air atmospheric conditions. The medium was removed; the compounds were added to the plates at 10 μM concentrations (in 0.1% DMSO) in triplicates, followed by incubation for 48h. DMSO (0.1%) was used as control. After incubation, medium was removed followed by the addition of PI (25 μl, 50μg/mL in water/medium) to each well of the plates. At -80 °C, the plates were allowed to freeze for 24 h, followed by thawing at 25 °C. A fluorometer (Polar-Star BMG Tech) was used to record the readings at excitation and emission wavelengths of 530 and 620 nm for each well. The percentage cytotoxicity of compounds was calculated using the following formula:
# (§3) Where ATC= Absorbance of treated cells and AC= Absorbance of control. Erlotinib was used as positive control in the assay. […]
# [2] = Cell viability assay (MTT) on MCF-10A normal cell line; format: cell-based; conditions: human, MCF-10A mammary gland epithelial normal cells, MCF-10A cells, 50 μM of each compound, four days of incubation
# Protocol: The human mammary gland epithelial (MCF-10A) normal cell line was used to examine the viability effects of new derivatives 5a–l using the MTT test.[33,34] Refer to Appendix A for more details.
# The human mammary gland epithelium (MCF-10A) normal cell line was employed to evaluate the viability effects of novel derivatives 5a–l. The cell viability of 5a–l was assessed via the MTT assay following four days of incubation with 50 μM of each compound on MCF-10A cells.[33,34] […]
# 4.2. Biological evaluation
# 4.2.1 Cell Viability assay (MTT assay)
# MTT assay was performed to investigate the effect of the synthesized compounds on mammary epithelial cells (MCF-10A). The cells were propagated in medium consisting of Ham's F-12 medium/ Dulbecco's modified Eagle's medium (DMEM) (1:1) supplemented with 10% foetal calf serum, 2 mM glutamine, insulin (10 μg/mL), hydrocortisone (500 ng/mL) and epidermal growth factor (20 ng/mL). Trypsin ethylenediamine tetra acetic acid (EDTA) was used to passage the cells after every 2-3 days. 96-well flat-bottomed cell culture plates were used to seed the cells at a density of 10^4 cells mL-1. The medium was aspirated from all the wells of culture plates after 24 h followed by the addition of synthesized compounds (in 200 μL medium to yield a final concentration of 0.1% (v/v) dimethyl sulfoxide) into individual wells of the plates. Four wells were designated to a single compound. The plates were allowed to incubate at 37°C for 96 h. Afterwards, the medium was aspirated and 3-[4,5-dimethylthiazol-2-yl]-2,5-diphenyltetrazolium bromide (MTT) (0.4 mg/mL) in medium was added to each well and subsequently incubated for 3 h. The medium was aspirated and 150 μL dimethyl sulfoxide (DMSO) was added to each well. The plates were vortexed followed by the measurement of absorbance at 540 nm on a microplate reader. The results were presented as inhibition (%) of proliferation in contrast to controls comprising 0.1% DMSO. […]
# HER-2 = biological target: T1, HER-2 (Homo sapiens, UniProt P04626); assay: HER-2 inhibitory assay (ADP-Glo kinase assay); format: biochemical; conditions: read-out: HER-2 inhibition IC50 ± SEM
# T1 construct: purchased Abcam ab60866
# Protocol: The results are presented as IC50 values. Lapatinib served as the reference medication. Appendix A describes more experimental details.
# Lapatinib functioned as the reference drug. […]
# 4.2.5. HER-2 inhibitory assay
# The ADP-Glo™ Kinase Assay was used for kinase activity detection, related kinases information:
# HER-2 (ab60866, Abcam), with a concentration of 100 ng/mL. Target compounds were dissolved in DMSO to obtain drug solutions with different concentrations, and the compound concentrations in the final reaction system (100 μL) were 1 nM, 20 nM, 40 nM, 80 nM, and 100 nM, respectively. 10μL of the solution containing compounds was transferred to a 96-well plate, then added 40 μL of 1 × kinase buffer (50 mM HEPES, pH 7.5) to each well, and mixed the mixture in the 96-well plate on a shaker for 10 min. Next, added 25 μL of ADP-Glo™ reagent to the above wells, mixed and incubated for another 40 min. Distributed 10 μL kinase detection reagent to the reaction and incubated for 30 min. Finally, the full-wavelength microplate reader was used to record the OD value.
# 4.3. Statistical analysis
# Computerized Prism 5 program was used to statistically analyzed data using one-way ANOVA test followed by Tukey’s as post ANOVA for multiple comparison at P ≤.05. Data were presented as […]
# lung cancer (A-549) = assay: Antiproliferative assay, A-549; format: cell-based; conditions: Homo sapiens, A549; A-549 lung cancer cell line; read-out: Antiproliferative activity IC50 ± SEM (nM) A-549
# Protocol: as §1, §2, §3
# (1 picture or pasted object on this page, not shown here)
# breast cancer (MCF-7) = assay: Antiproliferative assay, MCF-7; format: cell-based, human; conditions: for IC50: Homo sapiens, MCF7, MCF-7 breast cancer cell line, read-out: Antiproliferative activity IC50 ± SEM (nM) MCF-7
# Protocol: as §1, §2, §3
# EGFR = EGFR (Homo sapiens, UniProt P00533); assay: EGFR-TK inhibitory assay
# Protocol: Baculoviral expression vectors including pBlueBacHis2B and pFASTBacHTc were used separately
# upstream to the EGFR sequence comprised a sequence that encoded (His)6. Sf-9 cells were infected for 72h for protein expression. The pellets of Sf-9 cells were solubilized in a buffer containing sodium vanadate (100 μM), aprotinin (10 μg/mL), triton (1%), HEPES buffer(50mM), ammonium molybdate (10 μM), benzamidine HCl (16 μg/mL), NaCl (10 mM),leupeptin (10 μg/mL) and pepstatin (10 μg/mL) at 0°C for 20 min at pH 7.4, followed by centrifugation for 20 min. To eliminate the nonspecifically bound material, a Ni-NTA super flow packed column was used to pass through and wash the crude extract supernatant first with 10mM and then with 100 mM imidazole. Histidine-linked proteins were first eluted with 250 and then with 500 mM imidazole subsequent to dialysis against NaCl (50 mM), HEPES (20 mM), glycerol (10%) and 1 μg/mL each of aprotinin, leupeptin and pepstatin for 120 min. The purification was performed either at 4 °C or on ice. To record autophosphorylation level, EGFR kinase assay was carried out on the basis of DELFIA/Time-Resolved Fluorometry. The compounds were first dissolved in DMSO absolute, subsequent to dilution to appropriate concentration using HEPES (25 mM) at pH 7.4. Each compound (10 μL) was incubated with recombinant enzyme (10 μL, 5 ng for EGFR, 1:80 dilution in 100 mM HEPES) for 10 min at 25 °C, subsequent to the addition of 5X buffer (10 μL, containing 2 mM MnCl2, 100 μM Na3VO4, 20 mM HEPES and 1 mM DTT) and ATP-MgCl2 (20 μL, containing 0.1 mM ATP and 50 mM MgCl2) and incubation for 1h. The negative and positive controls were included in each plate by the incubation of enzyme either with or without ATP-MgCl2. The liquid was removed after incubation and the plates were washed thrice using a wash buffer. The Europium-tagged antiphosphotyrosine antibody (75 μL, 400 ng) was added to each well followed by incubation of 1h
# and then washing of the plates using buffer. The enhancement solution was added to each well and
# autophosphorylation percentage inhibition by compounds was calculated using the following
# calculated. The majority of signals detected by antiphosphotyrosine antibody were from EGFR because the enzyme preparation contained low impurities.
# [3] = test system: four human cancer cell lines (A-549, MCF-7, Panc-1, HT-29); assay: Antiproliferative assay, average over four cancer cell lines (GI50); format: cell-based; conditions: for GI50: Homo sapiens, GI50 = mean IC50 against the four cancer cell lines; for Times less efficient than 5a (GI50): ratio of GI50 versus 5a; for Potency reduction fold compared to 5h (GI50): ratio of GI50 versus 5h
# Protocol: as §1
# To explore the antiproliferative potential of compounds propidium iodide fluorescence assay was performed using different cell lines such as Panc-1 (pancreas cancer cell line), MCF-7 (breast cancer […]
# calculate the total nuclear DNA, a fluorescent dye (propidium iodide, PI) is used which can attach to the DNA, thus offering a quick and precise technique. PI cannot pass through the cell membrane and its signal intensity can be considered as directly proportional to quantity of cellular DNA. Cells whose cell membranes are damaged or have changed permeability are counted as dead ones. The assay was performed by seeding the cells of different cell lines at a density of 3000-7500 cells/well (in 200μl […]
# atmospheric conditions. The medium was removed; the compounds were added to the plates at 10 μM concentrations (in 0.1% DMSO) in triplicates, followed by incubation for 48h. DMSO (0.1%) was used as control. After incubation, medium was removed followed by the addition of PI (25 μl, 50μg/mL in water/medium) to each well of the plates. At -80 °C, the plates were allowed to freeze for 24 h, followed by thawing at 25 °C. A fluorometer (Polar-Star BMG Tech) was used to record the readings at excitation and emission wavelengths of 530 and 620 nm for each well. The percentage cytotoxicity of compounds was calculated using the following formula:
# Where ATC= Absorbance of treated cells and AC= Absorbance of control. […]
# positive control in the assay. […]
# BRAF^V600E = BRAF^V600E (Mus musculus, UniProt P28028, V585E); assay: BRAF^V600E inhibitory assay
# colon cancer (HT-29) = assay: Antiproliferative assay, HT-29; format: cell-based; conditions: Homo sapiens; HT-29 colon cancer cell line; read-out: Antiproliferative activity IC50 ± SEM (nM) HT-29
# Protocol: as §1, §2, §3
# T1 sequence (P04626 23-1255): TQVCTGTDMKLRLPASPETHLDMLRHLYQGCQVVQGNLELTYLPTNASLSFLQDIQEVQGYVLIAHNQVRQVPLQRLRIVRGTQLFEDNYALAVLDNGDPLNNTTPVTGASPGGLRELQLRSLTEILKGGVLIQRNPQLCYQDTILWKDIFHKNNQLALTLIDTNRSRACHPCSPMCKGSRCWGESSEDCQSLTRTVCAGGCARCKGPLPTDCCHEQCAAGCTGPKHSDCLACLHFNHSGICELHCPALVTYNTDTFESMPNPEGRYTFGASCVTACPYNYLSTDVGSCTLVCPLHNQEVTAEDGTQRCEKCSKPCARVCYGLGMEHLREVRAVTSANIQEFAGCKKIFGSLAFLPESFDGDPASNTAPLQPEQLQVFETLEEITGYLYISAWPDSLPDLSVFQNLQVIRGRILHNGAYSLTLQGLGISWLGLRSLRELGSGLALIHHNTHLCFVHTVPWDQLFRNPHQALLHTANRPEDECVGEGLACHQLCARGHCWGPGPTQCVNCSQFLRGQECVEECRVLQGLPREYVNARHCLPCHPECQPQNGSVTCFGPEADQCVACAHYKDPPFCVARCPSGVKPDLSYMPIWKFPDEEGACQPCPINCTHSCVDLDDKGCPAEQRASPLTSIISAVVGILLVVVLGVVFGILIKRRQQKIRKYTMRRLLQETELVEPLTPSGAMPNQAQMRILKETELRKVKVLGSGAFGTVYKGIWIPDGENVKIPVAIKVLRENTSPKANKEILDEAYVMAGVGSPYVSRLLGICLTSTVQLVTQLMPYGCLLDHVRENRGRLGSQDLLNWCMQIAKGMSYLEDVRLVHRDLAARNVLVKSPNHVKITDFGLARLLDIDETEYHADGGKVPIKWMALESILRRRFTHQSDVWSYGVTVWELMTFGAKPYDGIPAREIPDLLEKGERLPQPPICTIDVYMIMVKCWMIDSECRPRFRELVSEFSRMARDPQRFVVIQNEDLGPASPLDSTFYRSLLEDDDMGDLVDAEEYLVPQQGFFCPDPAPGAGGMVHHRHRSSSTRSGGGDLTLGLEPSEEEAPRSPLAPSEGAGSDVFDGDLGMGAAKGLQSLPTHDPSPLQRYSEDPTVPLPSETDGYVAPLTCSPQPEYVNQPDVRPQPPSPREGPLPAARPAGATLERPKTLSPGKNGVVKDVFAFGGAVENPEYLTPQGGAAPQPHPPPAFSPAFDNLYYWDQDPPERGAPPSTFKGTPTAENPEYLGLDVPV
# Chain of EGFR (P00533 669-1210): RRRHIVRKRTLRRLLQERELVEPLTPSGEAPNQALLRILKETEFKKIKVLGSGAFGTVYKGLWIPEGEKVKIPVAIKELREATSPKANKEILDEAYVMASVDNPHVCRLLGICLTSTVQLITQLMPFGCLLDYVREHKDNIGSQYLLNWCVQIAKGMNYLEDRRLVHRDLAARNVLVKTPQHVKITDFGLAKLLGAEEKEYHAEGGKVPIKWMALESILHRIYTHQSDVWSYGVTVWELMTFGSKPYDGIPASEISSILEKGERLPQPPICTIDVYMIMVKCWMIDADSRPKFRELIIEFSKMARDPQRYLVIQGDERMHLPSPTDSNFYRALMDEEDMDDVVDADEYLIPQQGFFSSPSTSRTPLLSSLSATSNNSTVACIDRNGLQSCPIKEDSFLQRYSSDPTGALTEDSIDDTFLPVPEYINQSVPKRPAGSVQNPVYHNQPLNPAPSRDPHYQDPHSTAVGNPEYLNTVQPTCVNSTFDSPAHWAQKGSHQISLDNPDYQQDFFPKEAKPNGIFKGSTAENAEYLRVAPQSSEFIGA
# Chain of BRAF^V600E (P28028 whole entry V585E): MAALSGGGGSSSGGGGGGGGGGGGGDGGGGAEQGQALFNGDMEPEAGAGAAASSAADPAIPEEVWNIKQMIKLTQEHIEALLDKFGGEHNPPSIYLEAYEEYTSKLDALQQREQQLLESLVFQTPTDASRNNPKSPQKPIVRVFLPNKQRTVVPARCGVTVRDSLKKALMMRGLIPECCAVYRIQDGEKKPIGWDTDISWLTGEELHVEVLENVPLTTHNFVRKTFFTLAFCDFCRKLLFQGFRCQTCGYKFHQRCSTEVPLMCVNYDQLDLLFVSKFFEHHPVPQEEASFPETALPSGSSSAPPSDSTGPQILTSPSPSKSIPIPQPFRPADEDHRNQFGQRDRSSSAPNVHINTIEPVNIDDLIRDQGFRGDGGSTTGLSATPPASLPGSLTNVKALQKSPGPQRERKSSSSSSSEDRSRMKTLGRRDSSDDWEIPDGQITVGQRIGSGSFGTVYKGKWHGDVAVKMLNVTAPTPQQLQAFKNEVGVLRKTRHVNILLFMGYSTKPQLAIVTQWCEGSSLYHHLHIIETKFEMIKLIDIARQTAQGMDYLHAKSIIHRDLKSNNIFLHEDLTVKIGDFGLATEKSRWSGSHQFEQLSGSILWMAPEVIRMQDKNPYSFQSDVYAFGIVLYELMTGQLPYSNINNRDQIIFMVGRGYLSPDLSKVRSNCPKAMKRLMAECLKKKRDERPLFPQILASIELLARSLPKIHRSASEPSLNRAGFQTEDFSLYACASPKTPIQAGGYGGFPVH
Structure (SMILES),IC50 [1] [nM],IC50 (HER-2) [nM],IC50 (lung cancer (A-549)) [nM],IC50 (breast cancer (MCF-7)) [nM],IC50 (EGFR) [nM],"Fold less potent than 5e, EGFR (EGFR; ratio of EGFR IC50 versus 5e) [fold]",GI50 [3] [nM],IC50 (BRAF^V600E) [nM],IC50 (colon cancer (HT-29)) [nM],Times less efficient than 5a (GI50) [3] [fold],Potency reduction fold compared to 5h (GI50) [3] [fold],"Fold more potency than erlotinib, EGFR (EGFR; ratio of EGFR IC50 versus erlotinib) [fold]","Times more effective than erlotinib (GI50) ([3]; ratio of GI50 versus erlotinib, four cancer cell lines) [fold]","viability at 4 days, 50 µM [2] [%]","Potency fold greater than erlotinib, MCF-7 (breast cancer (MCF-7); ratio of IC50 versus erlotinib, MCF-7) [fold]"
"Cc1ccc2[nH]c(=O)c3c(c2c1)OC(N)=C(C#N)C3c1ccccc1 (stereo not drawn) [Compound 5b, 2-Amino-9-methyl-5-oxo-4-phenyl-5,6-dihydro-4H-pyrano[3,2-c]quinoline-3-carbonitrile]",48 ± 4,–,48 ± 4,44 ± 4,–,–,48,–,50 ± 5,1.5,–,–,–,90,–
"COc1ccc2[nH]c(=O)c3c(c2c1)OC(N)=C(C#N)C3c1ccccc1 (stereo not drawn) [Compound 5c, 2-Amino-9-methoxy-5-oxo-4-phenyl-5,6-dihydro-4H-pyrano[3,2-c]quinoline-3-carbonitrile]",68 ± 6,–,66 ± 6,59 ± 5,–,–,66,–,70 ± 6,2.1,2.5,–,–,91,–
"COc1ccc(C2C(C#N)=C(N)Oc3c2c(=O)[nH]c2ccccc32)cc1 (stereo not drawn) [Compound 5f, 2-Amino-4-(4-methoxylphenyl)-5-oxo-5,6-dihydro-4H-pyrano[3,2-c]quinoline-3-carbonitrile]",56 ± 5,–,54 ± 4,50 ± 4,–,–,54,–,56 ± 5,–,–,–,–,92,–
"COc1ccc(C2C(C#N)=C(N)Oc3c2c(=O)[nH]c2ccc(C)cc32)cc1 (stereo not drawn) [Compound 5g, 2-Amino-4-(4-methoxylphenyl)-9-methyl-5-oxo-5,6-dihydro-4H-pyrano[3,2-c]quinoline-3-carbonitrile]",74 ± 6,–,71 ± 6,67 ± 6,–,–,72,–,74 ± 6,–,2.6,–,–,93,–
"N#CC1=C(N)Oc2c(c(=O)[nH]c3ccccc23)C1c1ccc(Cl)cc1 (stereo not drawn) [Compound 5j, 2-Amino-4-(4-chlorophenyl)-5-oxo-5,6-dihydro-4H-pyrano[3,2-c]quinoline-3-carbonitrile]",44 ± 4,–,43 ± 4,38 ± 3,–,–,43,–,46 ± 4,–,–,–,–,91,–
"Cc1ccc2[nH]c(=O)c3c(c2c1)OC(N)=C(C#N)C3c1ccc(Cl)cc1 (stereo not drawn) [Compound 5k, 2-Amino-9-methyl-4-(4-chlorophenyl)-5-oxo-5,6-dihydro-4H-pyrano[3,2-c]quinoline-3-carbonitrile]",42 ± 3,–,39 ± 3,34 ± 3,–,–,39,–,42 ± 3,–,–,–,–,93,–
"COc1ccc2[nH]c(=O)c3c(c2c1)OC(N)=C(C#N)C3c1ccc(Cl)cc1 (stereo not drawn) [Compound 5l, 2-Amino-9-methoxyl-4-(4-chlorophenyl)-5-oxo-5,6-dihydro-4H-pyrano[3,2-c]quinoline-3-carbonitrile]",62 ± 5,–,60 ± 5,56 ± 5,–,–,61,–,63 ± 5,–,2.3,–,–,92,–

# More lines, main results first:
IC50 [1] [nM],IC50 (HER-2) [nM],IC50 (lung cancer (A-549)) [nM],IC50 (breast cancer (MCF-7)) [nM],IC50 (EGFR) [nM],"Fold less potent than 5e, EGFR (EGFR; ratio of EGFR IC50 versus 5e) [fold]",GI50 [3] [nM],IC50 (BRAF^V600E) [nM],IC50 (colon cancer (HT-29)) [nM],Times less efficient than 5a (GI50) [3] [fold],Potency reduction fold compared to 5h (GI50) [3] [fold],"Fold more potency than erlotinib, EGFR (EGFR; ratio of EGFR IC50 versus erlotinib) [fold]","Times more effective than erlotinib (GI50) ([3]; ratio of GI50 versus erlotinib, four cancer cell lines) [fold]",Structure (SMILES),"viability at 4 days, 50 µM [2] [%]","Potency fold greater than erlotinib, MCF-7 (breast cancer (MCF-7); ratio of IC50 versus erlotinib, MCF-7) [fold]"
32 ± 2,36 ± 2,32 ± 2,27 ± 2,84 ± 5,1.2,31,79 ± 5,32 ± 2,–,–,–,–,"N#CC1=C(N)Oc2c(c(=O)[nH]c3ccccc23)C1c1ccccc1 (stereo not drawn) [Compound 5a, 2-Amino-5-oxo-4-phenyl-5,6-dihydro-4H-pyrano[3,2-c]quinoline-3-carbonitrile]",92,–
36 ± 3,39 ± 2,35 ± 3,31 ± 2,87 ± 5,–,35,83 ± 5,37 ± 3,–,–,–,–,"Cc1ccc2c3c(c(=O)[nH]c2c1)C(c1ccccc1)C(C#N)=C(N)O3 (stereo not drawn) [Compound 5d, 2-Amino-8-methyl-5-oxo-4-phenyl-5,6-dihydro-4H-pyrano[3,2-c]quinoline-3-carbonitrile]",93,–
28 ± 2,21 ± 1,26 ± 2,24 ± 2,71 ± 4,–,26,62 ± 3,27 ± 2,–,–,1.2,1.3,"Cn1c(=O)c2c(c3ccccc31)OC(N)=C(C#N)C2c1ccccc1 (stereo not drawn) [Compound 5e, 2-Amino-6-methyl-5-oxo-4-phenyl-5,6-dihydro-4H-pyrano[3,2-c]quinoline-3-carbonitrile]",90,1.7

# — article PMC12517401, “Design, synthesis, and antiproliferative activity of new 2-amino-pyrano[3,2-c]quinoline-3-carbonitriles as potential EGFR, BRAF^V600E, and HER-2 inhibitors” (RSC Advances, 2025)
